This is an account of results in publication PMC7738508, “A therapeutic combination of two small molecule toxin inhibitors provides broad preclinical efficacy against viper snakebite” (Nature Communications, 2020).

A word on the half-life: it is the time needed for the level to fall by half in the phase considered.

The test system of series [1] is SVMP bioactivity of the four active venoms (E. ocellatus, E. carinatus, B. asper, B. arietans). The series can be described thus: in vitro kinetic fluorogenic SVMP assay, viper venoms overall. It counts as biochemical. The procedure: (§1) The SVMP assay measuring metalloproteinase activity and the plasma assay measuring coagulation in the presence or absence of venoms and inhibitors were performed as previously described. The SVMP assay kinetically measured cleavage of a quenched fluorogenic substrate (ES010, R&D Biosystems) by venom in the presence or absence of inhibitors.
(§2) Briefly, 10 µl of the substrate (supplied as a 6.2 mM stock) was used per 5 ml reaction buffer (150 mM NaCl, 50 mM Tris-Cl pH 7.5). Reactions consisted of 10 µl of venom ± inhibitors in PBS and 90 µl of substrate. Venoms were used at 1 µg/reaction and final inhibitor concentrations ranged from 150 µM to 150 nM. Samples were preincubated for 30 min at 37 °C and pipetted in triplicate into 384-well plates (Greiner). Thereafter, data was collected on an Omega FLUOstar (BMG Labtech) instrument at an excitation wavelength of 320 nm and emission wavelength of 405 nm at 25 °C for 1 h. The areas under the curve (AUCs) in the 0–40 min interval were calculated for each sample using MARS data analysis software v3.31 (BMG Labtech); this time point was chosen as the time where all fluorescence curves had reached a plateau (maximum fluorescence). For comparing venom-only samples, the means of at least three independent experimental runs for each condition, expressed as AUCs (n ≥ 3), were plotted at each inhibitor concentration with standard error of the mean (SEM). To determine inhibitor efficacy, the AUCs for each of the samples that consisted of venom + inhibitors were transformed and expressed as percentages of the venom-only sample (where the venom was 100%). The negative control (PBS-only) was also expressed relative to the venom, and the variation in background was presented as an interval delineated by the lowest and highest values in the PBS-only samples across concentrations and inhibitors for a specific venom.

Series [2] concerns procoagulant activity of viper venoms (citrated bovine plasma). The series can be described thus: plasma clotting assay, viper venoms overall. Format: biochemical. Conditions: range across all venoms; lower end of dimercaprol and marimastat ranges given as < 0.15; read-out: IC50, inhibition of procoagulant venom activity. The procedure:
(§3) We used a previously developed plasma clotting assay[35] to measure venom-induced coagulation. Briefly, 100 ng of each venom was incubated at 37 °C for 30 min in the presence or absence of inhibitors (150 µM to 150 nM final concentrations). The final reaction consisted of 10 µl venom ± inhibitors in PBS, 20 µl 20 mM CaCl2, and 20 µl citrated bovine plasma (VWR). The samples were pipetted in triplicate into 384-well plates, and absorbance monitored at 595 nm for 2 h at 25 °C on an Omega FLUOstar instrument. We calculated the maximum clotting velocity of each of the curves as per clot waveform analysis, by calculating the maximum of the first derivative. The means of at least three independent experimental runs for each condition were plotted at each inhibitor concentration with SEMs.

Series [3] relates to procoagulant activity of Echis carinatus venom (citrated bovine plasma). In words: plasma clotting assay. It counts as biochemical. Also noted: key: max of first derivative of A595 clot curve (max clotting velocity). Conditions: Echis carinatus venom 100 ng, independent repeats. The procedure:
as §3

Series [4] concerns coagulopathic activity of Daboia russelii venom (citrated bovine plasma). In words: plasma clotting assay. It counts as biochemical. Also noted: key to maximum clotting velocity: max of first derivative of A595 clot curve (max clotting velocity). As to conditions: for maximum clotting velocity: Daboia russelii venom 100 ng, independent repeats. The procedure:
as §3

A further series can be described thus: water solubility. It counts as physicochemical.
Series [5] concerns Bitis arietans venom SVMP activity. In words: fluorogenic SVMP assay. Format: biochemical. Conditions: independent repeats. The procedure:
as §1, §2

Series [6] deals with Bothrops asper venom SVMP activity. The series can be described thus: fluorogenic SVMP assay. Format: biochemical. Conditions: independent repeats. The procedure:
as §1, §2

Series [7] relates to Echis carinatus venom SVMP activity. The series can be described thus: fluorogenic SVMP assay. Format: biochemical. As to conditions: independent repeats. The procedure: as §1, §2
Series [8] deals with Echis ocellatus venom SVMP activity. In words: fluorogenic SVMP assay. Format: biochemical. Conditions: independent repeats. The procedure:
as §1, §2

Series [9] deals with procoagulant activity of Bothrops asper venom (citrated bovine plasma). In words: plasma clotting assay. It counts as biochemical. As to conditions: Bothrops asper venom 100 ng, independent repeats. The procedure:
as §3

Series [10] has as its system procoagulant activity of Echis ocellatus venom (citrated bovine plasma). In words: plasma clotting assay. It counts as biochemical. As to conditions: Echis ocellatus venom 100 ng, independent repeats. The procedure: as §3
In series [11] the test system is pro- and anticoagulant fractions of D. russelii venom. In words: nanofractionation with plasma coagulation assay. Conditions: nanofractionated D. russelii venom; inhibitor 0.0064 to 20 µM. It counts as biochemical, Daboia russelii. The procedure:
Fifty microlitres of venom solution (D. russelii; 1 mg/ml) was injected into a Shimadzu LC-2010 system with nanofractionation in parallel. Separation was performed on a Waters XBridge reversed-phase C18 column (250 × 4.6 mm^2 column with 3.5 μm pore-size) at 30 °C. The total flow rate of the mobile phase solution was 0.5 ml/min with eluent A (98% H2O, 2% acetonitrile [ACN], 0.1% formic acid [FA]) and eluent B (98% ACN, 2% H2O, 0.1% FA). Liquid chromatography gradients consisted of a linear increase of mobile phase B from 0 to 50% in 20 min, followed by a linear increase to 90% B in 4 min, then isocratic at 90% B for 5 min, after which the percentage of mobile phase B was decreased from 90 to 0% in 1 min, followed by 10 min at 0% B to re-equilibrate. The effluent was split in a 1:9 ratio of which the 10% fraction was sent to a Shimadzu SPD-M20A prominence diode array detector and the 90% fraction was directed to a nanofractionation collector which dispensed the fractions into transparent 384-well plates (F-bottom, rounded square well, polystyrene, without lid, clear, non-sterile; Greiner Bio One, Alphen aan den Rijn, The Netherlands) at a resolution of 6 s/well. The collector used was either a commercially available FractioMate^TM nanofractionator (SPARK-Holland & VU, Netherlands, Emmen & Amsterdam) controlled by FractioMator software v1.0 (Spark-Holland, The Netherlands, Emmen) or a modified Gilson 235P autosampler controlled by in-house written software Ariadne v1.8 (VU Amsterdam). The well plates with venom fractions were then dried overnight in a Christ Rotational Vacuum Concentrator (RVC 2 − 33 CD plus, Zalm en Kipp, Breukelen, The Netherlands) equipped with a cooling trap, and maintained at −80 °C during operation. The freeze-dried plates were then stored at −80 °C prior to bioassaying.
The final assay concentrations of the inhibitors tested in the assay were 20, 4, 0.8, 0.16, 0.032, and 0.0064 µM. The plates were then incubated for 30 min at room temperature, and during this time bovine plasma (Sterile Filtered, Biowest, Nuaille, France) was defrosted in a water bath and centrifuged for 4 min at 805 × g prior to use. […] The plate was then read immediately for absorbance kinetically for 100 min at 595 nm at 25 °C using a Varioskan Flash Multimode Reader (Thermo Fisher Scientific, Ermelo, The Netherlands). The obtained results were normalized by dividing the slope measured in each well by the median of all slope values across the plate, and the processed coagulation chromatograms were plotted to visualize very fast coagulation, medium increased coagulation and anticoagulation, as previously described.

The subject of a further series is E. ocellatus venom. The series can be described thus: in vivo preincubation model of envenoming (i.v.). Details: species or system CD-1 mice. The procedure:
All animal experiments were conducted using protocols approved by the Animal Welfare and Ethical Review Boards of the Liverpool School of Tropical Medicine and the University of Liverpool, and performed in specific pathogen-free conditions under licensed approval (PPL #4003718 and #P5846F90) of the UK Home Office and in accordance with the Animal [Scientific Procedures] Act 1986 and institutional guidance on animal care. All experimental animals (18–20 g [4–5 weeks old], male, CD-1 mice, Charles River, UK) were housed in groups of five with environmental enrichment, water and food ad libitum and their health monitored daily during acclimatization. The experimental design was based upon 3R-refined WHO-recommended protocols[28],[41], with animals randomized and observers being blinded to the experimental condition. The median lethal doses (venom LD50) used for E. ocellatus (Nigeria), E. carinatus (India), B. asper (Costa Rica), D. russelii (Sri Lanka) and B. arietans (Nigeria) venoms were previously determined[25],[41],[44],[45].
All experimental doses were prepared to a volume of 200 µl in PBS and incubated at 37 °C for 30 min prior to their intravenous injection via the tail vein. Animals were monitored for 6 h, and euthanized via rising concentrations of CO2 upon observation of previously defined humane end points that are predicators of lethality (e.g., seizure, pulmonary distress, paralysis, hemorrhage)[28]. Deaths, time of death, and survivors were recorded; where death/time of death actually represents the implementation of euthanasia based on defined humane end points.
For all experimental animals described above, blood samples were collected via cardiac puncture immediately post-euthanasia. Plasma was separated by centrifugation at 400 × g for 10 min and stored at −80 °C. We assessed the levels of thrombin-antithrombin complexes (TAT) and soluble thrombomodulin using mouse ELISA Kits (ab137994 and ab209880, Abcam), following the manufacturer’s protocol. All available plasma samples (some were unobtainable via cardiac puncture due to extensive internal hemorrhage) were assessed if the time of death within the group varied, whereas three samples were randomly chosen if the time of death was the same (e.g., either very rapid death within 2 min, or survival until the end of the experiment [360 min or 24 h]). The resulting data was plotted as the median of duplicate measurements for each animal and is presented with standard deviations (SDs).

The conditions of series [12]: cited from earlier work.

Each structure is given as a SMILES string. Values joined by “and” are separate entries in the source; they are usually repeats but may differ in a detail not shown here. Equal entries are not always repeated. Where two headings read alike, the source gives them in different places.

In the case of `CNC(=O)[C@H](Cc1ccccc1)NC(=O)[C@H](CC(C)C)[C@H](CSc1cccs1)C(=O)NO` [batimastat], the “neutralization of SVMP bioactivity” value in series [1] (four active venoms, marimastat 150 nM to 150 µM, batimastat […] and 150 nM) is “equivalent efficacy to marimastat”. For the same compound, in series [2], the IC50 was less than 150 nM. The maximum clotting velocity is 0.03565 and 0.03449 in series [3] (inhibitor 15 µM); 0.0287 and 0.02696 and 0.02803 in series [3] (inhibitor 150 µM); 0.01373 and 0.01942 and 0.02131 in [4] (inhibitor 15 µM). In addition, in [4] (D. russelii venom, high doses), the “effect on clotting after complete neutralization of SVMP activity” value was “revealed clear venom anticoagulant effects”. The “water solubility (words)” value in the series “water solubility” is recorded as “water insolubility”; in the series “water solubility” (listed as Batimastat) it was “low water solubility”.

As to `OCC(S)CS` (stereo not drawn) [dimercaprol, 2,3-dimercapto-1-propanol], the “lowest concentration generally effective / required to fully inhibit SVMP activities” value in series [1] (across the active venoms) was 1.5 µM. Also, the IC50 lay in the range of 20 to 400 nM in series [1] (range across the active venoms, read-out: IC50s, inhibition of venom SVMP activity) and 150 to 3700 nM in [2]. Moreover, the “SVMP activity, percentage of the venom-only sample” value was 16.3406% and 15.4164% and 15.5101% in series [5] (inhibitor 15 µM); 15.3818% and 14.876% and 14.901% in [5] (inhibitor 150 µM); 36.4776% and 36.4971% and 29.4073% in series [6] (inhibitor 15 µM); 26.9201% and 36.0411% and 27.8434% in [6] (inhibitor 150 µM); 11.4563% and 14.5818% and 10.6976% in series [7] (inhibitor 15 µM); 11.223% and 13.9151% and 10.3819% in [7] (inhibitor 150 µM). Also, the “SVMP activity, percentage of the venom-only sample” value was 17.6103% and 18.1155% and 16.6523% in series [8] (inhibitor 15 µM); 15.563% and 16.8718% and 16.6432% in series [8] (inhibitor 150 µM). For the same compound, the maximum clotting velocity in series [9] (inhibitor 15 µM) was 0.02441 and 0.02559 and 0.02164; in series [9] (inhibitor 150 µM) it was 0.02412 and 0.03441 and 0.03148; in series [10] (inhibitor 15 µM), 0.031 and 0.039 and 0.025; in [10] (inhibitor 150 µM), 0.038 and 0.0465 and 0.041; in series [3] (inhibitor 15 µM), 0.039 and 0.037 and 0.04491; in series [3] (inhibitor 150 µM) it was 0.03967 and 0.03833 and 0.05167. Further, the maximum clotting velocity is 0.02868 and 0.02941 and 0.02393 in series [4] (inhibitor 15 µM); 0.007941 and 0.0123 in [4] (inhibitor 150 µM).

For the compound `CCc1c(C(=O)C(N)=O)c2c(OCC(=O)O)cccc2n1Cc1ccccc1` [varespladib], the maximum clotting velocity in [4] (inhibitor 15 µM) is 0.09594 and 0.09681 and 0.08696; in [4] (inhibitor 150 µM), 0.1113 and 0.1116 and 0.1203. In addition, in series [11], the “inhibition of anticoagulant venom fractions” value is “effectively inhibited”. The “inhibition of procoagulant venom fractions” value in [11] was “some inhibitory effect against procoagulant venom toxins, but only at very high doses (20 µM)”. Moreover, the “protection against venom-induced lethality” value in the series on E. ocellatus venom (45 µg E. ocellatus venom preincubated with 60 µg of each drug, i.v., 6 h) is reported as “failed to prevent lethality over the full experimental time course”. Further, the “thrombin-antithrombin (TAT) levels, range in group” value in the series on E. ocellatus venom (plasma after euthanasia, E. ocellatus venom + 60 µg of each drug, venom-only mean 1127.3, normal mice 10.2–15.9) is 472.7 to 649.9 ng/mL. In “water solubility”, the “water solubility (words)” value is “water insolubility”. The “tolerability” value in [12] (Phase 1 and 2) is “well tolerated”. Besides, the “risk of major adverse cardiovascular events” value in series [12] (Phase 2B, same daily dose, >300 patients for >6 months) is on record as “no greater risk of major adverse cardiovascular events”. For the same compound, in [12] (Phase 3, acute coronary syndrome patients, 500 mg oral daily), the “risk of myocardial infarction vs placebo” value is “greater risk of myocardial infarction than those receiving placebo”. For the same compound, the “oral bioavailability” value in series [12] is reported as “good oral bioavailability”. Further, in series [12] (delivered by iv infusion), the half-life was 5 h.
